From patent US7655454B1, “Bacteriological culture medium for Campylobacteriaceae species” (priority 2005, dated 2010)
Like-named read-outs stand apart in the source and are kept apart here.

How the values were obtained:
Type in all cases: cell-based
[1] = tested on: Campylobacter coli ATCC 33559; details: P<0.05
[2] = tested on: Campylobacter jejuni subsp. jejuni ATCC 33560
[3] = tested on: Campylobacter jejuni PPMQ2b; details: P<0.05
[4] = tested on: Campylobacter jejuni PPMQ3b; details: P<0.05
[5] = any of the concentrations tested
[6] = approximately 30, 40, or 50 mM acid
[7] = approximately 20, 30, 40, and 50 mM acid
[8] = approximately 20, 30, 40, or 50 mM acid, P<0.05

O=C(O)CC(O)(CC(=O)O)C(=O)O [Citric, citric acid]
absorbance compared with isolates grown in non-supplemented media ([1]; approximately 50 mM acid): not significantly different | growth compared with non-supplemented media ([1]; approximately 30 or 40 mM acid): significantly more growth | growth compared with non-supplemented media [2]: significantly more growth | absorbance compared with isolates grown in non-supplemented media ([2]; approximately 50 mM acid, P<0.05): not significantly different | absorbance compared with cultures grown in non-supplemented media [3, 5]: not significantly different | absorbance compared with cultures grown in non-supplemented media ([4]; approximately 20 mM acid): small but significantly higher

O=C(O)CCC(=O)O [Succinic, succinic acid]
absorbance compared with cultures in non-supplemented media [1, 6]: significantly higher | absorbance compared with cultures in non-supplemented media ([2]; approximately 30, 40, or 50 mM acid, P<0.05): significantly higher | absorbance compared with cultures grown in non-supplemented media [3, 5]: none of the concentrations of succinic acid produced significantly higher absorbances | absorbance compared with cultures grown in non-supplemented media ([4]; approximately 40 and 50 mM acid): significantly higher

O=C(O)CC(O)C(=O)O (racemic) [Malic, DL-malic acid]
absorbance compared with cultures in non-supplemented media [1, 7]: significantly higher | absorbance compared with cultures in non-supplemented media [2, 8]: significantly higher | acid concentration required to produce cultures with higher absorbance than in non-supplemented media [3]: approximately 40 mM | acid concentration required to produce cultures with significantly higher absorbances than in non-supplemented media [4]: approximately 20 mM

O=C(O)/C=C/C(=O)O [Fumaric, fumaric acid]
absorbance compared with cultures in non-supplemented media [1, 7]: significantly higher | absorbance compared with cultures in non-supplemented media [2, 8]: significantly higher | acid concentration required to produce cultures with higher absorbance than in non-supplemented media [3]: approximately 30 mM | absorbance compared with cultures grown in non-supplemented media ([4]; approximately 20 mM acid): significantly higher

CC(O)C(=O)O (racemic) [Lactic, DL-lactic acid]
absorbance compared with cultures in non-supplemented media [1, 6]: significantly greater | absorbance compared with cultures in non-supplemented media [2, 8]: significantly higher | absorbance compared with cultures grown in non-supplemented media ([3]; approximately 20, 30, 40, or 50 mM acid): significantly greater | absorbance compared with cultures grown in non-supplemented media ([4]; approximately 20 mM acid): significantly greater
